Structures can show the parent of a compound that is named as a salt.

Format in all cases: physicochemical
Data set [1] is described as follows: Particle density, true density and particle packing rate. The conditions noted are these: for Particle packing rate: particle density / true density x 100; for Particle packing rate / Particle density: trihydrate. The protocol: “Particle density” in the present description is mass per unit volume when the volume of the substance itself as well as the volume of the open void and the closed void are included as the volume of polycrystalline particles. For example, when the polycrystalline particles are spherical particles, the particle density is calculated by the following formula using the mean mass of the polycrystalline particles and the mean volume of the polycrystalline particles:
Here, the mean mass of polycrystalline particles is calculated by measuring the number of polycrystalline particles contained in 1.0 mg or more, preferably 5.0 mg or more, and more preferably 10.0 mg or more of a sample by a scanner, etc. The mean volume of crystal particles is obtained by averaging the volume calculated by photographing 500 or more, preferably 1,000 or more, and more preferably 5,000 or more crystal particles by a light microscope, etc., using an equivalent circle diameter obtained from the projected area of polycrystalline particles, and assuming that the polycrystalline particles are true spheres. At this time, it is desirable that the distribution of the equivalent circle diameter is unimodal and the sharpness value is less than 1.5.
“Particle packing rate” of a polycrystal in the present description is a value calculated by the following formula:
Particle packing rate (%)=(particle density)/(true density of compound)×100 [Equation 8]
Here, “true density of compound” is a density of a substance itself not including a void. If no void exists at all inside or on the surface of a particle, the particle packing rate is 100%. The true density of a compound can be obtained by dry density measurement by the constant volume expansion method. Examples of the measuring device include a dry automatic densimeter AccuPyc II 1340-10CC manufactured by Shimadzu Corporation.
The particle size distribution was measured in a dry manner using a spray particle size distribution analyzer AEROTRAC LDSA-SPR3500A manufactured by Microtrac Inc. The particle size distribution in Examples 2 and 7 was measured in a dry manner using a laser diffraction particle size distribution measurement MASTERSIZER 3000 manufactured by Malvern Panalytical Ltd. SEM images were measured using a scanning electron microscope JSM-IT100 manufactured by JEOL Ltd. Light microscope images were measured using an upright microscope BX53M manufactured by Olympus Corporation and a microscope digital camera DP74 manufactured by Olympus Corporation. Images for measuring the number of particles were obtained by a scanner GT-X830 manufactured by SEIKO EPSON CORPORATION. The powder X-ray diffraction (XRD) was measured using a desktop X-ray diffraction device MiniFlex300 manufactured by Rigaku Corporation. The specific surface area was measured by the BET fluid process (gas used: pure nitrogen) using a fully automatic specific surface area measuring device Macsorb HM-1208 manufactured by Mountech Co., Ltd. The moisture content was measured using a trace moisture measuring device AQ-2200 manufactured by […] SANGYO Co., Ltd. The dissolution profile was measured using μDISS Profiler manufactured by Pion Inc. Centrifugal classification was performed using a high-efficiency precision forced air classifier Lab Calssiel N-01 manufactured by SEISHIN […] Co., Ltd. Image analysis was performed using image processing software ImageJ developed by the National Institute of Health (NIH). The particle strength was measured using a particle hardness measuring device NEW GRANO manufactured by OKADA SEIKO CO., LTD. The true density was measured using a dry automatic densimeter AccuPyc II 1340-10CC manufactured by Shimadzu Corporation. The purity of a compound was measured by a high performance liquid chromatograph (LC-20A) manufactured by Shimadzu Corporation. […]

Data set [2] is described as follows: Sphericity from SEM images (ImageJ). On the set-up: key: 1 = true sphere; closer to 1 = more spherical; mean of ≥5 particles. The conditions noted are these: SEM image analysis, mean of particles. The source says:
In the present description, “spherulite” means a crystal aggregate (polycrystal) which has a radial or concentric thin layered structure and has a spherical outer shape. Whether the crystal obtained by the method of the present invention is a spherulite or not can be determined, for example, by observing the outer shape of the crystal using SEM. For example, it can be discriminated by cutting the crystal aggregate and observing the internal structure thereof using SEM. The sphericity of the spherulite obtained by the method of the present invention is usually 0.60 or more, preferably 0.70 or more, more preferably 0.80 or more, particularly preferably 0.90 or more, and most preferably 0.95 or more. The sphericity can be calculated by the following method.
When an image of particles taken by SEM is analyzed using image processing software ImageJ, a coordinate group representing the position of pixels forming the outline of a particle is obtained. The length of the coordinate group is defined as N, and one pixel coordinate of each outline is defined as p[i] (1≤i≤N). The angle between a straight line l(k) connecting two points p[k] and p[k+N/D] and a straight line m(k) connecting two points p[k+N/D] and p[k+2N/D] is defined as θ(k) (−180°<θ<180°) (1≤k≤N, 1≤D≤N). D corresponds to the number of partitions of the outline. When N/D is not a natural number, the value is defined as the quotient obtained by dividing N by D. By calculating this angle with k=1 to N, N pieces of θ value can be obtained.
When the particle is a true sphere, θ(k) is 360/D, and the closer the particle is to a true sphere, the closer θ(k) is to this value. The error between θ(k) and the true value 360/D is evaluated by the root-mean-square error (RMSE) of the following formula:
Using the RMSE value of when D is 10 (θ(k)=36°), the sphericity is defined by the following formula: […]
The sphericity is 1 in a true sphere, and the closer the particle is to a true sphere, the closer the sphericity is to 1. Meanwhile, the sphericity of an ellipse whose long axis is infinitely long is zero. The sphericity is measured for five or more particles to calculate the mean. This mean is defined as the sphericity of each sample (see FIGS. 42 and 43).

A short description of data set [3]: Particle size from SEM images (equivalent circle diameter, mean particle size, crystal size). The method, then: “Equivalent circle diameter” in the present description is a diameter of a perfect circle corresponding to the area of individual particles in an image of particles taken by SEM, and is calculated from randomly selected 5 to 800 particles using image processing software ImageJ. The equivalent circle diameter of a spherulite obtained by the method of the present invention is preferably 25 μm or more, 30 μm or more, 35 μm or more, 40 μm or more, 45 μm or more, or 50 μm or more and 100 μm or less, 120 μm or less, 150 μm or less, 200 μm or less, 250 μm or less, 300 μm or less, 500 μm or less, or 1,000 μm or less. More preferably, the equivalent circle diameter is 25 to 500 μm or 30 to 300 μm.
The particle size distribution was measured in a dry manner using a spray particle size distribution analyzer AEROTRAC LDSA-SPR3500A manufactured by Microtrac Inc. The particle size distribution in Examples 2 and 7 was measured in a dry manner using a laser diffraction particle size distribution measurement MASTERSIZER 3000 manufactured by Malvern Panalytical Ltd. SEM images were measured using a scanning electron microscope JSM-IT100 manufactured by JEOL Ltd. Light microscope images were measured using an upright microscope BX53M manufactured by Olympus Corporation and a microscope digital camera DP74 manufactured by Olympus Corporation. Images for measuring the number of particles were obtained by a scanner GT-X830 manufactured by SEIKO EPSON CORPORATION. The powder X-ray diffraction (XRD) was measured using a desktop X-ray diffraction device MiniFlex300 manufactured by Rigaku Corporation. The specific surface area was measured by the BET fluid process (gas used: pure nitrogen) using a fully automatic specific surface area measuring device Macsorb HM-1208 manufactured by Mountech Co., Ltd. The moisture content was measured using a trace moisture measuring device AQ-2200 manufactured by […] SANGYO Co., Ltd. The dissolution profile was measured using μDISS Profiler manufactured by Pion Inc. Centrifugal classification was performed using a high-efficiency precision forced air classifier Lab Calssiel N-01 manufactured by SEISHIN […] Co., Ltd. Image analysis was performed using image processing software ImageJ developed by the National Institute of Health (NIH). The particle strength was measured using a particle hardness measuring device NEW GRANO manufactured by OKADA SEIKO CO., LTD. The true density was measured using a dry automatic densimeter AccuPyc II 1340-10CC manufactured by Shimadzu Corporation. The purity of a compound was measured by a high performance liquid chromatograph (LC-20A) manufactured by Shimadzu Corporation.
The spherulite of azithromycin monohydrate produced in Example 12 was cut, and the section was observed by SEM (FIG. 4). The crystal size at the outer edge was 5 to 10 μm, while the crystal size at the center was 0.2 to 1 μm.

Data set [4] is described as follows: Measurement of critical degree of supersaturation of spherulite. The note with it: entry 19; solvent 1 EtOH, solvent 2 H2O, solvent 2/solvent 1 ratio 1; crystallization 35 °C. The source says: “Supersaturated solution” in the present description means a solution in a state of containing a solute exceeding the solubility. As the degree of supersaturation, “degree of supersaturation” can be used. Regarding the degree of supersaturation, when the concentration (mass concentration (g/g)) of a compound dissolved in a supersaturated solution is defined as C and the solubility of the compound is defined as Cs, the degree of supersaturation S can be represented by the following formula: […]
“Critical degree of supersaturation” in the present description means the lowest degree of supersaturation required to obtain a specifically-shaped crystal. […] The value of a critical degree of supersaturation varies depending on the shape of a crystal. For example, all of values of a critical degree of supersaturation required to obtain a plate crystal, a critical degree of supersaturation required to obtain a needle crystal, and a critical degree of supersaturation required to obtain a spherulite are different. The critical degree of supersaturation required to obtain a spherulite is higher than the critical degree of supersaturation required to obtain a plate crystal or a needle crystal.
The actual measured value of the critical degree of supersaturation (S*) can be measured as follows:
(1) 100 particles are observed by SEM. (2) 5 to 10 particles whose shape is close to a desired specific shape are selected, and the shape is evaluated. In particular, when the desired specific shape is a sphere, the sphericity is evaluated. (3) Based on the evaluation index of the shape, whether the selected particles have the desired specific shape or not is determined. In particular, when the desired specific shape is a sphere, the case where the sphericity is 0.60 or more is determined as a spherulite. (4) The above-mentioned operation is performed for each sample having a different degree of supersaturation during crystallization, and the minimum value of a degree of supersaturation having the specifically-shaped particles is determined as the critical degree of supersaturation. The difference between the maximum value of a degree of supersaturation not having the specifically-shaped particles and the critical degree of supersaturation should be 20% or less.
The critical degree of supersaturation of a spherulite of ketotifen fumarate was determined as follows. To 2.0 g of ketotifen fumarate, 10 mL (5 v/w) of methanol was added, followed by reflux to completely dissolve. This solution was added dropwise to 50 mL of isopropanol at 20° C. to prepare a supersaturated solution of ketotifen fumarate. The degree of supersaturation of the supersaturated solution at the end of dropwise addition was 9.0. The supersaturated solution was crystallized. The crystal was collected by filtration, followed by drying under reduced pressure at 40° C., thus obtaining a crystal of ketotifen fumarate.
Similarly, when a substrate and a solvent different from those mentioned above are used, a plurality of samples having a different degree of supersaturation are prepared and crystallized, and then the critical degree of supersaturation of the spherulite was measured.

On to `COc1ccc2[n-]c([S@@+]([O-])Cc3ncc(C)c(OC)c3C)nc2c1.COc1ccc2[n-]c([S@@+]([O-])Cc3ncc(C)c(OC)c3C)nc2c1.O.O.O.[Mg+2]` [Sample 1, esomeprazole magnesium trihydrate], for which, in data set [1], the Particle packing rate is reported as 54% and the Particle density was found to be 0.74 g/mL.

For the compound `CN(C)CC/C=C1/c2ccccc2COc2ccc(CC(=O)O)cc21` [Example 31, olopatadine], in data set [2], the “sphericity of the spherulite” value is on record as 0.96±0.02. In addition, in data set [3], the mean particle size was 167 μm.

Take `COc1ccc2[n-]c([S@@+]([O-])Cc3ncc(C)c(OC)c3C)nc2c1.COc1ccc2[n-]c([S@@+]([O-])Cc3ncc(C)c(OC)c3C)nc2c1.O.O.O.[Mg+2]` [Example 4, esomeprazole magnesium trihydrate]: the “sphericity of the spherulite” value in data set [2] (trihydrate) stood at 0.93±0.02. In addition, in data set [3] (SEM image, ImageJ, trihydrate), the equivalent circle diameter is reported as 183±8 μm.

As for `COc1ccc2[n-]c([S@@+]([O-])Cc3ncc(C)c(OC)c3C)nc2c1.COc1ccc2[n-]c([S@@+]([O-])Cc3ncc(C)c(OC)c3C)nc2c1.O.O.O.[Mg+2]` [Sample 2, esomeprazole magnesium trihydrate], in data set [1], the Particle packing rate was 64% and the Particle density was found to be 0.87 g/mL.

Regarding `COc1ccc2[n-]c([S@@+]([O-])Cc3ncc(C)c(OC)c3C)nc2c1.COc1ccc2[n-]c([S@@+]([O-])Cc3ncc(C)c(OC)c3C)nc2c1.O.O.O.[Mg+2]` [Esomeprazole magnesium trihydrate], the “Critical degree of supersaturation S Experimental value” in data set [4] was found to be 1.6. The true density in data set [1] turned out to be 1.37 g/mL.

As to `COc1cccc(C2(O)CCCCC2CN(C)C)c1` (stereo not shown) [Example 29, tramadol hydrochloride], the “sphericity of the spherulite” value in data set [2] was determined as 0.90±0.08. In addition, the mean particle size in data set [3] worked out at 319 μm.

With `Cc1ccccc1C(=O)Nc1ccc(C(=O)N2CCCC(O)c3cc(Cl)ccc32)c(C)c1` (stereo not shown) [Example 28, tolvaptan], the “sphericity of the spherulite” value in data set [2] worked out at 0.94±0.02. Moreover, in data set [3], the mean particle size was 145 μm.

In data set [1], `COc1ccc2[n-]c([S@@+]([O-])Cc3ncc(C)c(OC)c3C)nc2c1.COc1ccc2[n-]c([S@@+]([O-])Cc3ncc(C)c(OC)c3C)nc2c1.O.O.O.[Mg+2]` [Sample 3, esomeprazole magnesium trihydrate] had a Particle packing rate of 88% and a Particle density of 1.21 g/mL.

These data come from patent US20210391038A1, “SPECIFICALLY-SHAPED CRYSTAL OF COMPOUND AND METHOD FOR PRODUCING SAME” (TOWA PHARMACEUTICAL CO., LTD., priority 2018, published 2021).
